{"source": "patent US11806401B2", "about": "“Prevention of drug-induced atrio-ventricular block” (SignPath Pharma Inc., priority 2016, dated 2023)", "key": {"[1]": {"biological_target": "IKr (Homo sapiens, UniProt Q12809)", "sequence (Q12809 whole entry)": "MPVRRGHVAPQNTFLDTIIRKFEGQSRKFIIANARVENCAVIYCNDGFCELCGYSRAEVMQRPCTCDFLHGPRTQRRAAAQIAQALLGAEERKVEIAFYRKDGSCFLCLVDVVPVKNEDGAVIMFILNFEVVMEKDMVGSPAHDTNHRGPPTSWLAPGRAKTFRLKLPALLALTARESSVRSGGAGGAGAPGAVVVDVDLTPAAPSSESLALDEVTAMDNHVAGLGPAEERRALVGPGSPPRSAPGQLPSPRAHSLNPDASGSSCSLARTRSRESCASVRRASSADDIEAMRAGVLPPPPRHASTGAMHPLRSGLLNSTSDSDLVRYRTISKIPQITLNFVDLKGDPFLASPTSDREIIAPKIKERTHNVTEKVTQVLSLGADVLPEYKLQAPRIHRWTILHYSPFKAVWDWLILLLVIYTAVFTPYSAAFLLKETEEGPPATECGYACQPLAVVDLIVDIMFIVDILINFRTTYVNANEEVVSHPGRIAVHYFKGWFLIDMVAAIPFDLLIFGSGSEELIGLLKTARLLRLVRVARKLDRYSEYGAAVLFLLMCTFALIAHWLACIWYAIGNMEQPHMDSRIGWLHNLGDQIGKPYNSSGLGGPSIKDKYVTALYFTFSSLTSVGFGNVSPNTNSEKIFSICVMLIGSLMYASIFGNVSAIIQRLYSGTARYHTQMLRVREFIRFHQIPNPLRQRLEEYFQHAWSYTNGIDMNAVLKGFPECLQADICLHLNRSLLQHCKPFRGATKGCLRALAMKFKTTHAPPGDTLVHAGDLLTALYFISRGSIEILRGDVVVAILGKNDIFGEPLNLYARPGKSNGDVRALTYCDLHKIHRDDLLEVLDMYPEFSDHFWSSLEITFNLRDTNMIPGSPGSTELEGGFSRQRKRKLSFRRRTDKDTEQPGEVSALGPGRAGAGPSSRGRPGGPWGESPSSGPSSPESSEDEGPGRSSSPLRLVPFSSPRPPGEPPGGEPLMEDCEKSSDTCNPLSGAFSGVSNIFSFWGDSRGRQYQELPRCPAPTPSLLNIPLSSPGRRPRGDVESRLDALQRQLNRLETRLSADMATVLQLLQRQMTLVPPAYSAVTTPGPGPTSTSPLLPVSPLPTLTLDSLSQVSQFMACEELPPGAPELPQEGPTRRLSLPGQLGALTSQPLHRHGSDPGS", "details": "cited from earlier work"}, "[2]": {"tested_on": "guinea pigs", "assay": "Effect of Fingolimod, verapamil and 14:0 lyso PG on PR intervals / AV block in instrumented guinea pigs", "type": "in vivo, guinea pig", "experimental": "PR intervals were measured following the infusion of Fingolimod. Measurements of PR were stopped when the P wave disconnected from the QRS complexes, indicating 3rd degree AV block.\nFingolimod was administered by intravenous infusion to instrumented guinea pigs at doses ranging from 3 μg/kg to 300 μg/kg (n=6, green series, above). The intravenous route of administration was selected because it simplified the pharmacokinetics of this multi-drug experiment.\nAgain, the intravenous route of administration for both drugs was selected to simplify the kinetics of the experiment."}, "[3]": {"tested_on": "clinical volunteers and patients", "details": "cited from earlier work"}, "[4]": {"tested_on": "guinea pigs", "assay": "Effect of Fingolimod, verapamil and 14:0 lyso PG on QTc interval in instrumented guinea pigs", "type": "in vivo, guinea pig"}, "[5]": {"assay": "Prevention of drug-induced QTc prolongation in regulatory-validated preclinical models", "type": "in vivo", "details": "against Moxifloxacin; Nilotinib; Crizotinib; Sotalol; Curcumin; Nifedipine; Lovastatin; Thioridazine; Amiodarone; Terfenadine; E4031; Felbamate; Gilenya; Quizartinib (AC220); Forskolin; Turmerone"}, "[6]": {"tested_on": "normal subjects and cancer patients", "assay": "Phase 1a and 1b clinical studies of liposomal curcumin (14:0 lyso PG)", "type": "in vivo, human", "source_text": "To date, 45 normal subjects and 28 cancer patients have been tested in Phase 1a and 1b (ongoing) studies, respectively."}, "[7]": {"tested_on": "guinea pigs", "assay": "Effect of single oral doses of Moxifloxacin on QTc interval of instrumented guinea pigs, without or with 14:0 lyso PG", "type": "in vivo, guinea pig"}, "[8]": {"details": "0.5 mg/kg verapamil i.v. 60 minutes before Fingolimod infusion"}, "[9]": {"details": "intravenous infusion of Fingolimod alone"}, "[10]": {"details": "oral 1.0 mg/kg 14:0 lyso PG, then verapamil, then Fingolimod infusion"}, "[11]": {"details": "14:0 lyso PG given orally prior to Fingolimod and/or verapamil"}}}
{"smiles": "CCCCCCCCc1ccc(CCC(N)(CO)CO)cc1", "note": "[Fingolimod]", "values": [{"measurement": "IKr inhibition", "setting": "[1]", "result": "approximately 64%"}, {"measurement": "Fingolimod dose at 1st-degree AV block", "setting": "[2]; [8]", "result": 0.007, "unit": "mg/kg"}, {"measurement": "Fingolimod dose at 3rd-degree dissociation between P waves and QRS complexes", "setting": "[2]; [8]", "result": 0.045, "unit": "mg/kg"}, {"measurement": "Fingolimod dose at Mobitz-Type-1 2nd degree AV block", "setting": "[2]; [8]", "result": 0.01, "unit": "mg/kg"}, {"measurement": "Fingolimod dose at 1st degree AV block", "setting": "[2]; [9]", "result": 0.015, "unit": "mg/kg"}, {"measurement": "Fingolimod dose at 3rd degree AV block", "setting": "[2]; [9]", "result": 0.023, "unit": "mg/kg"}, {"measurement": "Fingolimod dose at Mobitz Type-1, 2nd-degree AV block", "setting": "[2]; [9]", "result": 0.02, "unit": "mg/kg"}, {"measurement": "Fingolimod dose at 1st-degree AV block", "setting": "[2]; oral 1.0 mg/kg 14:0 lyso PG, 0.5 mg/kg verapamil i.v. 60 min later, Fingolimod infusion 60 min post-verapamil", "result": 0.2, "unit": "mg/kg"}, {"measurement": "Fingolimod dose at P-QRS dissociation, in the rest of the animals in the cohort", "setting": "[2]; [10]", "result": 0.3, "unit": "mg/kg"}, {"measurement": "Fingolimod dose at P-QRS dissociation, in the two animals with Mobitz-Type-2 AV block", "setting": "[2]; [10]", "result": 0.051, "unit": "mg/kg"}, {"measurement": "animals with Mobitz-Type-2 AV block", "setting": "[2]; [10]", "result": "2 out of 6"}, {"measurement": "changes in PR intervals", "setting": "[2]; oral 1.0 mg/kg 14:0 lyso PG, then verapamil, then Fingolimod infusion, up to a dose of 200 μg/kg", "result": "modest changes in PR intervals"}, {"measurement": "AV block in human patients", "setting": "[3]; Full Prescribing Information, Novartis", "result": "produce AV block from the first dose"}, {"measurement": "QT/QTc prolongation", "setting": "[3]; administered alone in healthy, naive animals and clinical volunteers", "result": "limited QT/QTc prolongation"}, {"measurement": "QTc intervals", "setting": "[3]; clinical patients taking verapamil along with Fingolimod", "result": "severely prolonged QTc intervals"}, {"measurement": "delays in repolarization", "setting": "[3]; therapeutic doses, in a pair of individuals (EMA Assessment Report)", "result": 60, "unit": "ms"}]}
{"smiles": "CCCCCCCCCCCCCC(=O)OC[C@@H](O)COP(=O)(O)OCC(O)CO", "note": "(mixture of isomers) [14:0 lyso PG, 1-myristoyl-2-hydroxy-sn-glycero-3-phospho-(1′-rac-glycerol)]", "values": [{"measurement": "change in cardiac electrophysiology", "setting": "[4]; guinea pig, in vivo, po, 1 mg/kg", "result": "no change in cardiac electrophysiology"}, {"measurement": "QTc prolongation for any given dose of Fingolimod relative to verapamil+Fingolimod animals", "setting": "[4]; oral 1.0 mg/kg 14:0 lyso PG, then 0.5 mg/kg verapamil i.v. at 60 min, Fingolimod i.v. at 120 min", "result": "⅓"}, {"measurement": "Maximum Tolerated Dose (MTD)", "setting": "[4]; oral gavage formulation", "result": "greater than the highest achievable dose in the oral formulation"}, {"measurement": "QTc prolongation by other drugs", "setting": "[5]", "result": "prevents"}, {"measurement": "right-shift of the appearance of 3rd-degree AV block compared to Fingolimod alone", "setting": "[2]; [11]", "result": 13, "unit": "fold"}, {"measurement": "right-shift of the appearance of 3rd-degree AV block compared to animals receiving both Fingolimod and verapamil", "setting": "[2]; [11]", "result": 6.6, "unit": "fold"}, {"measurement": "adverse effects", "setting": "[6]; exposure levels used in the curcumin Phase 1a and Phase 1b clinical trials", "result": "devoid of adverse effects"}, {"measurement": "clinical efficacy against curcumin: QT and QTc interval prolongation", "setting": "[6]; ongoing Phase 1b study, human patients", "result": "preventing QT and QTc interval prolongation"}, {"measurement": "tolerability in clinical trials", "setting": "[6]; orally-administered", "result": "well-tolerated"}, {"measurement": "changes in QTc", "setting": "[7]; concomitant oral 14:0 lyso PG with Moxifloxacin, 14:0 lyso PG:Moxifloxacin ratio 0.45:1, n=6", "result": "no, or very little, changes in QTc"}, {"measurement": "shift in the QTc-dose response of Moxifloxacin", "setting": "[7]; concomitant oral 14:0 lyso PG, ratio 0.45:1", "result": "statistically significant right-shift"}]}
